In test [1] the test system is Pseudomonas aeruginosa, Staphylococcus aureus, Candida albicans and Aspergillus brasiliensis. Briefly: Challenge test according to Ph. Eur. Chapter 5.1.3, overall preservation (all test organisms). The format is cell-based. The following applies: formulation A (cream). The protocol: (§1) The following examples show results of challenge tests that were carried out according to the requirements of Ph. Eur. Chapter 5.1.3. The following test organisms are used here as representatives for microorganisms: Pseudomonas aeruginosa (gram-negative; abbreviated below as “P. a.”), Staphylococcus aureus (gram-positive; abbreviated below as “St. a.”), Candida albicans (yeast fungus; abbreviated below as “C. a.”) and Aspergillus brasiliensis (mold fungus; abbreviated below as “A. b.”). In a challenge test, a cosmetic, dermatological or pharmaceutical formulation is accurately considered as adequately preserved if all four test organisms are passed at least with a B criterion. An A criterion means an outstanding preservation, a B criterion, means an adequate preservation and with an F criterion the test is considered overall as not passed. As a comparison, an unpreserved sample of the respective formulation is additionally tested. The further abbreviations SC=sorbitan monocaprylate, Octopirox®=piroctone olamine apply below.
(§2) The assignment of the A, B and F criteria is directed by the level of the microorganism count reduction within a fixed time interval, in which only the logarithmic reduction is considered.

Test [2] relates to Aspergillus brasiliensis. The test is described as follows: Challenge test according to Ph. Eur. Chapter 5.1.3, Aspergillus brasiliensis. Format: cell-based. As to conditions: formulation B (shampoo), use concentration 0.05% piroctone olamine. The protocol:
as §1, §2

In the case of `O=C(O)c1ccccc1` [Benzoic acid, benzoic acid, reference compound], the “adequate preservation of formulation A” value in test [1] (0.4% benzoic acid as individual antimicrobial active ingredient) was “does not suffice”. With `Cc1cc(CC(C)CC(C)(C)C)n(O)c(=O)c1.NCCO` (stereo not drawn) [Octopirox ®, piroctone olamine], the “adequate preservation of formulation A” value in test [1] (use concentration 0.05% piroctone olamine) was “cannot be preserved adequately”. In test [2], the “protection of formulation B against growth of mold fungi” value is listed as “cannot adequately protect”.

The values are drawn from patent US8969390B2, “Composition containing sorbitan monocaprylate and antimicrobial substances” (Clariant Finance (BVI) Limited, priority 2009, dated 2015).
